Experimental data reported in patent US8372808B2, “Suppression of glial fibrillary acidic protein” (Wisconsin Alumni Research Foundation, priority 2008, dated 2013).

What was measured:
[1] = system: mGFAP protein; test: cell-based GFAP protein level assay (cell-based ELISA) in 172.9 cells; set-up: species or system mouse; conditions: tertiary screen; 48 hr exposure; at the MTDcc
[2] = system: GAPDH promoter; test: housekeeping GAPDH promoter activity in brain of Tg172.9 mice; format: in vivo, mouse; conditions: 40 mg/kg IP every other day for 3 weeks
Method: The dual transgenic reporter mice (FVB-Tg(GFAP-luc,GAPDH-luc)172.9Mes/J mice (JR#9638)) were developed as follows. The two transgenes were co-injected at equimolar ratios into the pronuclei of fertilized eggs on either FVB/N or FB6F1 hybrid backgrounds, using a combined concentration of 3 ng/μL. Genotyping was performed by PCR on genomic DNA isolated from tail biopsies at weaning, using the following conditions: one cycle at 95° C. 3 min, 32 cycles of 95° C. 40 s, 58° C. 30 s, 72° C. 1 min and a final extension step at 72° C. for 5 min. The primers used for detection of the GFAP-fLuc transgene were 5′-[…]-3′ (forward) and 5′-[…]-3′ (reverse), and for detection of the GAPDH-RLuc transgene were 5″-[…]-3′ (forward) and 5′-[…]-3′ (reverse). The predicted sizes for the PCR fragments are 403 bp for the GFAP-fLuc transgene, and 551 by for the GAPDH-RLuc transgene. Nine founder mice were identified that contained both transgenes, and were mated to FVB/N mice to establish lines. (The Tg172-9 line of mice has been donated to the Jackson Laboratory ([…]) for unrestricted distribution (stock #JR9638). The GAPDH (glyceraldehyde 3-phosphate dehydrogenase) promoter was used to monitor transcription of a housekeeping gene for signal normalization.

[3] = sometimes considered in combination with desmethyl-clomipramine; cited from earlier work
[4] = system: 172.9 cells; test: cell viability (CellTiter-Glo) / MTDcc in 172.9 cells
Method: Criterion for acceptable viability was >70% survival.
Cell viability was determined as follows. After exposure to each compound (duplicate wells per compound), 50 μl of CellTitier-Glo Luminescent Cell Viability Assay reagent (G7571, Promega) was added to the 100 μl of media present in each well, and the luminescent signal (reflecting intracellular ATP level) was detected with either a Victor 3-V plate reader (Perkin Elmer) or GloRunner Microplate Luminometer (Turner Biosystems). Cell viability was expressed as a percent of non-treated control cells.
A dose-response curve was created for each compound (0.1, 0.5, 1, 5, 10, 15, 20 μM) using 48 hr exposures. The MTDcc (“maximum tolerated dose—cell culture”) indicates the highest concentration that retained at least 70% cell viability. Each compound and concentration was analyzed in quadruplicate wells. EGCDG: epigallocatechin 3,5-digallate; NPPB: 5-nitro-2-phenylproplyaminobenzoic acid. As used herein, MTDcc refers to the MTD as determined by this assay under the above conditions.

SMILES: CN(C)CCCN1c2ccccc2CCc2ccc(Cl)cc21 [clomipramine]
- % GFAP reductions, mGFAP protein via ELISA [1]: 20.6%
- change in activity from the housekeeping GAPDH promoter [2]: no significant change
- plasma concentration considered therapeutic in humans [3]: 300 to 1750 nM
- cell viability ([4]; quaternary screen, 10 days of exposure): acceptable cell viability
- MTDcc ([4]; tertiary screen, 48 hr exposure, 0.1-20 μM, highest concentration that retained at least 70% cell viability): 12.5 µM
